Experiments:
purified human MMP-2 = biological target: T1, purified human MMP-2 (Homo sapiens, UniProt P08253); assay: Anti-MMP-2 activity, DQ-gelatin fluorimetry; type: biochemical
T1 construct: purchased BOEHRINGER MANNHEIM; host or cells: purified from human fibrosarcoma (natural, not recombinant)
T1 sequence (P08253 110-660): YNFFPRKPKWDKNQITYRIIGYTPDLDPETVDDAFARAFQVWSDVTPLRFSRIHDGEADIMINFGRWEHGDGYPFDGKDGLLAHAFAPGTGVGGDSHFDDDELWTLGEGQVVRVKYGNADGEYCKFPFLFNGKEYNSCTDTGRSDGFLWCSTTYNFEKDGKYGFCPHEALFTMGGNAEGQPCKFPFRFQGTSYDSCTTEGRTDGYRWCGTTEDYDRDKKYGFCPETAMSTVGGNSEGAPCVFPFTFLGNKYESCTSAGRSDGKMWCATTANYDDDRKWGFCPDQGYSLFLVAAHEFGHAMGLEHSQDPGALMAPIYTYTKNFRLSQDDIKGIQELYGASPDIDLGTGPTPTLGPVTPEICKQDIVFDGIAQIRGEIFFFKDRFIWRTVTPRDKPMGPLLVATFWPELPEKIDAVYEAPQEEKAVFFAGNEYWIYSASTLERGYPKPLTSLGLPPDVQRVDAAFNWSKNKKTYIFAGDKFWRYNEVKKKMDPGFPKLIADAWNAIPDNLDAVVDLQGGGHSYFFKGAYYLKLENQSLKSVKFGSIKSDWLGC
Procedure: (§1) The anti-MMP-2 and anti-MMP-9 activity of the test products was measured in vitro in a biochemical model of the screening type, based on the use of a purified human MMP-2 and of a recombinant human MMP-9 and of the substrate for the latter, gelatin conjugated to fluorescein (EnzChek™ gelatinase/collagenase kit, MOLECULAR PROBES).
The MMP-2 purified from human fibrosarcoma came from BOEHRINGER MANNHEIM.
(§2) The DQ-gelatin purified from porcine skin and conjugated to fluorescein was supplied in the EnzChek™ gelatinase/collagenase kit (MOLECULAR PROBES).
The reaction buffer for studying the activity of MMP-2 (RBf1) consisted of 50 mM of Tris-HCl, 0.05% (w/v) of Triton X100 and 5 mM of CaCl2, pH 7.5.
(§3) 1,10-Phenanthroline was solubilized in the reaction buffers RBf1 and RBf2. It was tested at 8 and 80 μg/ml.
(§4) Peptide extracts A, B and C were solubilized in the reaction buffers RBf1 and RBf2. They were tested at 0.01; 0.1 and 1% (w/v). […]
(§5) After 24 hours, the signal corresponding to the degradation of the DQ-gelatin was measured by fluorimetry (excitation: 485 nm and emission: 595 nm) For each sample, the value obtained for the “samples without enzyme” was subtracted.
(§6) The results were expressed as fluorescence units per sample and as percentage variation relative to the control group. […]

recombinant human MMP-9 = biological target: T2, recombinant human MMP-9 (Homo sapiens, UniProt P14780); assay: Anti-MMP-9 activity, DQ-gelatin fluorimetry; type: biochemical
T2 construct: purchased R&D SYSTEMS
T2 sequence (P14780 94-707): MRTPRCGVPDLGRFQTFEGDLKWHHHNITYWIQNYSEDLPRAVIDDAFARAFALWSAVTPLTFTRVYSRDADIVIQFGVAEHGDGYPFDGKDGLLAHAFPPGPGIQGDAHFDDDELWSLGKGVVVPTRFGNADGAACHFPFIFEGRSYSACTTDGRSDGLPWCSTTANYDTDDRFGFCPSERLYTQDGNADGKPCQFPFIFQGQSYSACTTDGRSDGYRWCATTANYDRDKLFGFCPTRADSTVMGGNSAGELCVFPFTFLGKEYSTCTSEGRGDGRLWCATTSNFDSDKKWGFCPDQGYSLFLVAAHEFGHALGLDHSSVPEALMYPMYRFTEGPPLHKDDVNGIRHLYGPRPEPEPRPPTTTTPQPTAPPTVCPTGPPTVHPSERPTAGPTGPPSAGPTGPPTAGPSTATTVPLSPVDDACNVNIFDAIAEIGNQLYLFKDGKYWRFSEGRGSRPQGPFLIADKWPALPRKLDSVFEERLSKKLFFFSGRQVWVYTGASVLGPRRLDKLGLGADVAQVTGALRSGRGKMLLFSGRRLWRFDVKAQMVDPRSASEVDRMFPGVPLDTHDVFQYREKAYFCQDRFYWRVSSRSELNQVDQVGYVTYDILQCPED
Procedure: as §1
The recombinant human MMP-9 came from R&D SYSTEMS.
as §2
The reaction buffer for studying the activity of MMP-9 (RBf2) consisted of 50 mM of Tris-HCl, 0.05% (w/v) of Brij 35 and 5 mM of CaCl2, pH 7.4.
as §3, §4, §5, §6

[1] = system: MMP-1 in human fibroblasts irradiated with UVA rays; assay: Amount of MMP-1 secreted by UVA-irradiated human dermal fibroblasts (ELISA); type: cell-based; conditions: Fibroblast, light or radiation study, 80 μg/ml, read-out: inhibition of the secretion of MMP-1 by the irradiated fibroblasts
Procedure: (§7) The study was carried out on human dermal fibroblasts in monolayer culture. The cells were pre-incubated for 1 hour at 37° C. in the presence of the reference products and of the test product. Then, the cells were irradiated with a single dose of 10 J/cm^2 of UVA, in the presence of the product to be tested and of the reference products.
(§8) Immediately after irradiation, the cells were incubated for 48 h at 37° C., still in the presence of the product to be tested and of the reference products.
(§9) The various MMPs are tested in the culture media using specific ELISA kits (Amersham).
(§10) 1,10-Phenanthroline, which is a nonspecific inhibitor of MMPs, and was tested at 80 μg/ml, was used as a reference product.
(§11) A 10 μg/ml retinoic acid+10 ng/ml EGF mixture was used for its abilities to induce TIMP1 (TIMP1, Tissue Inhibitor of MMP, physiological inhibitor of MMPs).
(§12) A stock solution containing 10% (w/v) of lupin peptides was prepared in deionized water. Using this solution, dilutions were prepared in the fibroblast culture medium. The peptide extract of lupin was tested at 0.5; 1 and 2% (v/v).
(§13) Irradiated and nonirradiated control cultures were incubated in parallel, in the absence of the reference products and of the test product. […]
(§14) They are given in the table below and the results are expressed as % relative to the “irradiated cells” group.

[2] = system: MMP-9 in human fibroblasts irradiated with UVA rays; assay: Amount of MMP-9 secreted by UVA-irradiated human dermal fibroblasts (ELISA); type: cell-based; conditions: Fibroblast, light or radiation study, 80 μg/ml, read-out: inhibition of the secretion of MMP-9 by the irradiated fibroblasts
Procedure: as §7, §8, §9, §10, §11, §12, §13, §14

[3] = system: MMP-3 in human fibroblasts irradiated with UVA rays; assay: Amount of MMP-3 secreted by UVA-irradiated human dermal fibroblasts (ELISA); type: cell-based; conditions: Fibroblast, light or radiation study, 80 μg/ml, read-out: inhibition of the secretion of MMP-3 by the irradiated fibroblasts
Procedure: as §7, §8, §9, §10, §11, §12, §13, §14

[4] = system: purified collagenase (type III, fraction A); assay: Anticollagenase activity in organotypic model of human skin sections (Masson trichrome, morphology and image analysis); type: biochemical; parameters: key to Enzymatic digestion (morphological observation): 0: zero enzymatic digestion; +: weak enzymatic digestion; ++: average enzymatic digestion; +++: strong enzymatic digestion; conditions: phosphoramidon 10^−3 M; collagenase 50 IU/ml, 3 hours 37° C.
Procedure: The anticollagenase activity of a test product can be studied in vitro in an organotypic model of human skin. The principle of the test is as follows: application of purified collagenase to sections is accompanied by degradation of the endogenous collagen fibers. The collagen fibers are then stained with Masson trichrome. The digestion of the endogenous collagen fibers by the purified collagenase is evaluated qualitatively by morphological observation and quantitatively by image analysis. A product which has anticollagenase activity will partially or totally preserve the integrity of the collagen fibers placed in the presence of the enzyme.
Three dilutions were tested: 0.01; 0.1 and 1% (v/v). […]
After incubation, the sections were rinsed with the incubation medium and stained with Masson trichrome. The activity of the enzyme in the presence and absence of the extract, of the ethanol or of the reference product was evaluated by microscopic observation and scored according to the following scheme:
The activity of the collagenase in the presence and absence of the test products, of the ethanol or of the reference product was evaluated by image analysis. […] The results were expressed as a percentage of intact collagen fibers per optical field. […]
For the reference product (directly taken up in the vehicle), the percentage inhibition is calculated using the following formula: […]

SMILES	inhibition at 8 µg/mL (purified human MMP-2; 8 μg/ml)	inhibition at 80 µg/mL (purified human MMP-2; 80 μg/ml)	inhibition at 8 µg/mL (recombinant human MMP-9; 8 μg/ml)	inhibition at 80 µg/mL (recombinant human MMP-9; 80 μg/ml)	inhibition at 80 µg/mL [1]	inhibition at 80 µg/mL [2]	inhibition at 80 µg/mL [3]	% inhibition of the collagenase activity (image analysis) [4]	Enzymatic digestion (morphological observation) [4]
c1cnc2c(c1)ccc1cccnc12 [1,10-phenanthroline]	32%	73%	80%	76%	99%	92%	97%		
CC(C)C[C@H](NP(=O)(O)O[C@@H]1O[C@@H](C)[C@H](O)[C@@H](O)[C@H]1O)C(=O)N[C@@H](Cc1c[nH]c2ccccc12)C(=O)O [Phosphoramidon]								16%	+
